According to patent US20120046331A1, “Antifungal Agents and Uses Thereof” (priority 2010, published 2012):
Converted amounts (≈) assume the structure as drawn. Read-outs that look alike come from different tables or passages of the source. Marks after values point to notes of the source that are not given here.

Key:
[1] = test system: panel of clinical isolates of 5 common dermatophytic fungi; assay: Checkerboard combination testing, whole panel (Example 1); assay type: cell-based
Method: (§1) This example describes the in vitro activity of combinations of compounds according to the present invention and antifungal agents against a collection of dermatophytic fungal pathogens. Antifungal susceptibility testing was adapted from the CLSI M38-A broth microdilution method for dermatophytes (NCCLS-M38-A2 2008). Combination testing was performed by checkerboard method (with compound 8 in combination with fluconazole, itraconazole or terbinafine). A total of 30 isolates of 5 different fungal species were tested in the combination test: 6 isolates each of Trichophyton tonsurans, Trichophyton rubrum, Epidermophyton floccosum, Trichophyton mentagrophytes and Microsporum canis. Clinical isolates were obtained by the Laboratory of Dr. M. Ghannoum at Case Western University.
(§2) Synergy was assessed using the fractional inhibitory concentration (FIC), an interaction coefficient, with the following definitions: […]

T. tonsurans [2] = assay: Checkerboard microdilution Compound 8 + fluconazole, FIC Index (Example 2); assay type: cell-based; settings: Compound 8 in combination with fluconazole, one value per strain (MRL #)
Method: (§3) MIC testing was performed according to the modification of the CLSI M38-A2 standard for dermatophytes developed at the Center (CLSI. Reference Method for Broth Dilution Antifungal Susceptibility Testing of Filamentous Fungi; Approved Standard-Second Edition. CLSI document M38-A2 [ISBN 1-56238-668-9]. CLSI, 940 West Valley Road, Suite 1400, Wayne, Pa. 19087-1898 USA, 2008; Ghannoum M A, et al. Intra- and Interlaboratory Study of a Method for Testing the Antifungal Susceptibilities of Dermatophytes. 2004 J Clin Microbiol 42:(7): 2977-2979). Compound 8 and fluconazole were tested in combination using a checkerboard microdilution method. The interaction between Compound 8 and fluconazole was determined by FIC Index, or Fractional Inhibitory Concentration Index, which assigns a numerical value to the interaction of the two antifungals.

T. mentagrophytes [3] = assay: as above; assay type: cell-based; settings: Compound 8 in combination with fluconazole, one value per strain (MRL #)
Method: as §3

T. rubrum [4] = assay: as above; assay type: cell-based, Trichophyton rubrum; settings: Compound 8 in combination with fluconazole, one value per strain (MRL #)
Method: This example describes the in vitro activity of combinations of compounds according to the present invention and antifungal agents against clinical isolates of Trichophyton rubrum. Twenty clinical isolates Trichophyton rubrum, including 9 strains with elevated terbinafine MICs, taken from the culture collection of the Center for Medical Mycology, were tested.
as §3

T. mentagrophytes [5] = assay: Checkerboard combination testing of compound 8 with antifungals, FIC (Example 1); assay type: cell-based, Trichophyton mentagrophytes; settings: n=6 isolates; for Additivity # isolates / Additivity isolates (%): 0.5≦FIC≦1.0; for No Interaction # isolates: 1.0<FIC≦4.0; for Synergy # isolates / Synergy isolates (%): FIC<0.5
Method: as §1, §2

T. tonsurans [6] = assay: MIC testing, modified CLSI M38-A2 for dermatophytes (Example 2); assay type: cell-based
Method: as §3

T. rubrum [7] = assay: as above; assay type: cell-based, Trichophyton rubrum; settings: for MIC50: lowest concentration to inhibit 50% of the strains tested, n = 20
T. tonsurans [8] = assay: Single agent MIC, broth microdilution adapted from CLSI M38-A (Example 1); assay type: cell-based; settings: Trichophyton tonsurans, range over clinical isolates, N=8, read-out: Cpd 8 MIC
Excerpt: (§4) A minimum inhibitory concentration (MICx) of a compound such as a HDAC inhibitor or an antifungal agent (or both) is the concentration that reduces growth of a fungus by X %, compared to the growth of the fungus in the absence of the compound.
as §1

T. mentagrophytes [9] = assay: as above; assay type: cell-based; settings: Trichophyton mentagrophytes, range over clinical isolates, N=10, read-out: Cpd 8 MIC
Excerpt: as §4, §1

M. canis [10] = assay: as above; assay type: cell-based; settings: Microsporum canis, range over clinical isolates, N=7, read-out: Cpd 8 MIC
Excerpt: as §4, §1

T. rubrum [11] = assay: as above; assay type: cell-based; settings: Trichophyton rubrum, range over clinical isolates, N=10, read-out: Cpd 8 MIC
Excerpt: as §4, §1

E. floccosum = assay: as above; assay type: cell-based; settings: Epidermophyton floccosum, range over clinical isolates, N=9, read-out: Cpd 8 MIC
Excerpt: as §4, §1

T. rubrum [12] = assay: Checkerboard combination testing of compound 8 with antifungals, FIC (Example 1); assay type: cell-based, Trichophyton rubrum; settings: n=6 isolates; for Additivity # isolates / Additivity isolates (%): 0.5≦FIC≦1.0; for No Interaction # isolates: 1.0<FIC≦4.0; for Synergy # isolates / Synergy isolates (%): FIC<0.5
Method: as §1, §2

[13] = test system: T. rubrum, T. mentagrophytes and T. tonsurans strains; assay: Checkerboard microdilution Compound 8 + fluconazole, all strains (Example 2); assay type: cell-based; settings: Compound 8 in combination with fluconazole
Method: as §3

M. canis [14] = assay: Checkerboard combination testing of compound 8 with antifungals, FIC (Example 1); assay type: cell-based, Microsporum canis
Method: as §1, §2

[15] = test system: broad panel of dermatophytic clinical isolates; assay: Single agent MIC, whole panel (Example 1); assay type: cell-based; settings: range over all species and clinical isolates tested
Excerpt: as §4, §1

M. canis [16] = assay: Checkerboard combination testing of compound 8 with antifungals, FIC (Example 1); assay type: cell-based, Microsporum canis; settings: Compound 8 in combination with itraconazole, N=5 isolates
[17] = Compound 8 in combination with fluconazole
[18] = Compound 8 in combination with itraconazole
[19] = Trichophyton tonsurans, n = 5 strains
[20] = Compound 8 in combination with fluconazole, 0.5≦FIC≦1.0, n=6 isolates
[21] = Compound 8 in combination with fluconazole, 1.0<FIC≦4.0, n=6 isolates
[22] = Compound 8 in combination with fluconazole, FIC<0.5, n=6 isolates

For `O=C(Cc1ccc(CCCCc2ccccc2)cc1)NO` [Compound 8], the “Synergy, % of the isolate combinations tested” value ([1]; Compound 8 with fluconazole, 30 isolate combinations) was 33%, the “Synergy, number of isolates” value ([1]; Compound 8 with fluconazole, of 30 isolate combinations tested) was 10 and the “Synergy, % of the isolate combinations tested” value ([1]; Compound 8 with itraconazole, 28 isolate combinations) was 54%. The “Synergy, number of isolates” value ([1]; Compound 8 with itraconazole, of 28 isolate combinations tested) was 15, the Antagonism ([1]; any of the Compound 8-azole combinations or clinical isolates) was “Antagonism was not observed” and the “Interpretation from ODDS” value (T. tonsurans [2]; strain MRL 10152) was “Additive”. The “Interpretation from ODDS” value (T. tonsurans [2]; strain MRL 10327) was “No interaction”, the “Interpretation from ODDS” value (T. tonsurans [2]; strain MRL 10328) was “Synergistic” and the “Interpretation from ODDS” value (T. mentagrophytes [3]; strain MRL 11256) was “Synergistic”. For the same compound, the “Interpretation from ODDS” value (T. mentagrophytes [3]; strain MRL 12511) was “Additive”, the “Interpretation from ODDS” value (T. mentagrophytes [3]; strain MRL 12680) was “No interaction” and the “Interpretation from ODDS” value (T. rubrum [4]; strain MRL 476) was “No interaction”. The “Interpretation from ODDS” value (T. rubrum [4]; strain MRL 477) was “Additive”, the “Interpretation from ODDS” value (T. rubrum [4]; strain MRL 670) was “Synergistic” and the “Interpretation from ODDS” value (T. rubrum [4]; strain MRL 9482) was “Addivtive”. The “Additivity # isolates” value (T. mentagrophytes [5]; [17]) was 4, the “Additivity isolates (%)” value (T. mentagrophytes [5]; [17]) was “(67%)” and the “No Interaction # isolates” value (T. mentagrophytes [5]; [17]) was 0. For the same compound, the “Synergy # isolates” value (T. mentagrophytes [5]; [17]) was 2, the “Synergy isolates (%)” value (T. mentagrophytes [5]; [17]) was “(33%)” and the “Additivity # isolates” value (T. mentagrophytes [5]; [18]) was 1. For the same compound, the “Additivity isolates (%)” value (T. mentagrophytes [5]; [18]) was “(17%)”, the “No Interaction # isolates” value (T. mentagrophytes [5]; [18]) was 0 and the “Synergy # isolates” value (T. mentagrophytes [5]; [18]) was 5. The “Synergy isolates (%)” value (T. mentagrophytes [5]; [18]) was “(83%)”, the MIC (T. tonsurans [6]; Trichophyton tonsurans, drug alone, one value per strain (MRL # in c0), read-out: Individual MIC) was 0.12 µg/mL and the MIC50 (T. tonsurans [6]; [19]) was 0.06 µg/mL. The MIC90 (T. tonsurans [6]; [19]) was 0.06 µg/mL, the “Antifungal activity as compared with fluconazole” value (T. tonsurans [6]; all strains tested) was “more potent antifungal activity as compared with fluconazole” and the “MIC Range” value (T. tonsurans [6]; n = 5 strains) was 0.06 to 0.12 µg/mL. It also gave an MIC50 (T. rubrum [7]; Trichophyton rubrum, read-out: MIC50) of 1 µg/mL (≈ 3.53 µM), an MIC90 (T. rubrum [7]; Trichophyton rubrum, n = 20 strains) of 4 µg/mL (≈ 14.1 µM) and an MIC50 (T. rubrum [7]) of 1 µg/mL (≈ 3.53 µM). For the same compound, the “MIC Range” value (T. rubrum [7]; n = 20 strains) was 0.5 to 4.0 µg/mL, the “Compound 8 MIC compared with the corresponding terbinafine MIC” value (T. rubrum [7]; nine strains with a terbinafine MIC≧4.0 μg/ml) was “lower than the corresponding terbinafine MIC for eight of nine strains” and the MIC (T. tonsurans [8]) was 0.02 to 0.25 µg/mL. The MIC (T. mentagrophytes [9]) was 0.12 to 2 µg/mL, the MIC (M. canis [10]) was 0.12 to 2 µg/mL and the MIC (T. rubrum [11]) was 0.06 to 0.25 µg/mL. The MIC (E. floccosum) was 0.5 to 1 µg/mL, the “Additivity # isolates” value (T. rubrum [12]; [17]) was 4 and the “Additivity isolates (%)” value (T. rubrum [12]; [17]) was “(67%)”. For the same compound, the “No Interaction # isolates” value (T. rubrum [12]; [17]) was 0, the “Synergy # isolates” value (T. rubrum [12]; [17]) was 2 and the “Synergy isolates (%)” value (T. rubrum [12]; [17]) was “(33%)”. The “Additivity # isolates” value (T. rubrum [12]; [18]) was 2, the “Additivity isolates (%)” value (T. rubrum [12]; [18]) was “(33%)” and the “No Interaction # isolates” value (T. rubrum [12]; [18]) was 0. The “Synergy # isolates” value (T. rubrum [12]; [18]) was 4, the “Synergy isolates (%)” value (T. rubrum [12]; [18]) was “(67%)” and the Antagonism [13] was “No antagonism was demonstrated”. The “Synergism, % of the strains” value [13] was 23%, the “Additivity # isolates” value (M. canis [14]; [20]) was 4 and the “Additivity isolates (%)” value (M. canis [14]; [20]) was “(67%)”. For the same compound, the “No Interaction # isolates” value (M. canis [14]; [21]) was 1, the “No Interaction isolates (%)” value (M. canis [14]; [21]) was “(17%)” and the “Synergy # isolates” value (M. canis [14]; [22]) was 1. The “Synergy isolates (%)” value (M. canis [14]; [22]) was “(17%)”, the “No Interaction # isolates” value (M. canis [14]; Compound 8 in combination with itraconazole, 1.0<FIC≦4.0, N=5 isolates) was 4 and the MIC [15] was 0.02 to 2 µg/mL. The “Additivity # isolates” value (M. canis [16]; 0.5≦FIC≦1.0) was 0*, the “No Interaction isolates (%)” value (M. canis [16]; 1.0<FIC≦4.0) was “(80%)*” and the “Synergy # isolates” value (M. canis [16]; FIC<0.5) was 1. The “Synergy isolates (%)” value (M. canis [16]; FIC<0.5) was “(20%)*”.
